Results on 1 molecule are retold here after patent publication US9493466B2, “Treatment of cancer with TOR kinase inhibitors” (Signal Pharmaceuticals, LLC, priority 2011, dated 2016).

As usually defined, the GI50 is the concentration giving 50% growth inhibition. For orientation: IC50 means the concentration that gives 50% inhibition.

The test system of one assay is NCI-H441 tumors. The assay is described as follows: NCI-H441 NSCLC in vivo tumor growth model. Further details: species or system SCID mice. The settings on record: 1 to 10 mg/kg oral BID, up to 26 days; FIG. 9. On the procedure: NCI-H441 NSCLC In Vivo Tumor Growth Model. A xenograft study was conducted with NCI-H441 tumor-bearing mice. SCID mice were inoculated subcutaneously with NCI-H441 cells in the flank region above the right hind leg. Following inoculation of the animals, the tumors were allowed to grow to about 100 mm^3 prior to randomization. On Day 14 following tumor cell inoculation, the mice bearing NCI-H441 tumors ranging between 87 and 136 mm^3 were pooled together and randomized into various treatment groups. Compound 1 was formulated in 0.5% CMC and 0.25% Tween 80 in water (as a suspension). The animals were orally administered vehicle (CMC-Tween) or Compound 1 twice daily (BID) for up to 26 days. Doses of Compound 1 ranged between 1 and 10 mg/kg. The positive control rapamycin (4 mg/kg, Q3D) was administered via the intraperitoneal (IP) route. Rapamycin was prepared as solution in 2% ethanol, 45% polyethyleneglycol 400, and 53% saline. Tumors were measured twice a week using calipers and tumor volumes were calculated using the formula of W^2×L/2. Statistical analysis was performed using a one-way analysis of variance (ANOVA) followed by Dunnett's post-hoc comparison with the vehicle-treated control group.

The subject of the next assay is U87MG tumors. The assay is described as follows: CD31 immunohistochemistry in U87MG tumors. The class given is in vivo, mice. The settings on record: 5 mg/kg BID oral for 4 days; p<0.001. The procedure:
Mechanism of action studies. To determine the mechanism of action of Compound 1, mice bearing U87MG tumors of approximately 500 mm^3 were dosed orally with vehicle or Compound 1 at 5 mg/kg BID for 4 days. The positive control, rapamycin, was dosed at 4 mg/kg Q3D for 4 days. Two hours after the 7th dose of Compound 1 on day 4, animals were euthanized and tumors were dissected out and snap frozen in liquid nitrogen. In the rapamycin-treated group tumors were collected at 2 hour after the 2nd dose on day 4. The tumors were processed for immunohistochemistry (IHC) or TUNEL.
Immunohistochemistry. Five to ten micron (5-10 μm) thick cryostat sections were used for IHC. The expression of the cell proliferation marker Ki67 was evaluated by IHC using anti-Ki67 antibody. […] The sections were visualized with a Nikon E800 microscope equipped with fluorescence detection equipment and a digital camera attached to a computer.
Quantitation of Immunohistochemistry. The tissues sections processed for apoptosis or immunostained for proliferating cells (Ki67) or blood vessels were quantitated using Metamorph software. Using 20× objective, 5 different fields from each section, 2-4 sections from each tumor, and 3-4 tumors from each treatment group or control were used for quantitation. The area of interest was expressed as the percent threshold area of the total area. […]

The next assay has as its system PLC-PRF-5. The assay is described as follows: Growth inhibition assay for HCC lines. It is filed as cell-based. The settings on record: PLC-PRF-5, 96 hours, DMEM + 10% FBS. On the procedure:
(§1) Growth Inhibition Assay for HCC and NHL Lines. The seeding density for each cell line was optimized to ensure assay linearity in 384-well plates.
(§2) Compound 1 was dissolved in dimethyl sulfoxide (DMSO) to prepare a 10 mM stock solution. A serial titration was performed to produce a working concentration range of […] to 10 mM. Aliquots to produce final concentrations of 1.5 nM to 10 μM were spotted via an acoustic dispenser (EDC ATS-100) into an empty 384-well plate. Compound 1 was spotted in a 10-point serial dilution fashion (3-fold dilution) in duplicate within the plate. The DMSO concentration was kept constant for a final assay concentration of 0.1% DMSO. Plates were replicated for use with different cell lines and testing periods. After compound plate replication, all plates were sealed (Agilent ThermoLoc) and stored at −20° C. for up to 1 month. […] When ready for testing, plates were removed from the freezer, thawed, and unsealed just prior to the addition of the test cells. Prior to testing, cells were grown and expanded in culture flasks to provide sufficient amounts of starting material. Cells were then diluted to the appropriate densities and added directly to the compound-spotted 384-well plates. Cells were allowed to grow for 96 hours at 37° C./5% CO2. At the time when compound was added (t0), initial cell number was assessed via a viability assay (Cell Titer-Glo) by quantifying the level of luminescence generated by ATP present in viable cells. After 96 hours, cell viability of compound-treated cells was assessed via Cell Titer-Glo and luminescence measurement. Cell lines were assayed for growth inhibition by Compound 1 in at least 3 independent tests. A control cell line (the lung tumor cell line, A549) was included in each of the assays. The compound response against this control cell line was monitored closely to enable comparison of the data generated through the assay period. All data were normalized and presented as a percentage of the DMSO-treated cells. Results were then expressed as a GI50 value. The GI50 value corrects for the cell count at time zero. In addition, the IC50 value of Compound 1 for each cell line was calculated.

Another assay has as its system SNU-182. Put plainly: Growth inhibition assay for HCC lines. It is filed as cell-based. The settings on record: SNU-182, 96 hours, RPMI 1640 + 10% FBS. The procedure:
as §1, §2

For another assay, the system named is SNU-398. The assay is described as follows: Growth inhibition assay for HCC lines. It is filed as cell-based. The settings on record: SNU-398, 96 hours, RPMI 1640 + 10% FBS. The procedure:
as §1, §2

For a further assay, the system named is SNU-387. The assay is described as follows: Growth inhibition assay for HCC lines. The class given is cell-based. The settings on record: SNU-387, 96 hours, RPMI 1640 + 10% FBS. The procedure: as §1, §2

Take `CO[C@H]1CC[C@H](N2C(=O)CNc3ncc(-c4ccc(C(C)(C)O)nc4)nc32)CC1` [Compound 1, 7-(6-(2-hydroxypropan-2-yl)pyridin-3-yl)-1-((1r,4r)-4-methoxycyclohexyl)-3,4-dihydropyrazino-[2,3-b]pyrazin-2(1H)-one]: in the assay on NCI-H441 tumors, the tumor growth result is recorded as “significantly inhibited”. Also, the “reduction of CD31-positive blood vessels compared with vehicle” value in the assay with U87MG tumors was determined as 50%. Also, the GI50 came to 310 ± 70 nM with PLC-PRF-5, 80 ± 30 nM in the assay with SNU-182, 280 ± 60 nM in the assay on SNU-398 and 1260 ± 470 nM in the assay with SNU-387. Besides, the IC50 with PLC-PRF-5 was determined as 430 ± 70 nM; in the assay on SNU-182 it was 260 ± 100 nM; with SNU-398, 290 ± 50 nM; with SNU-387 it was 2470 ± 930 nM.
